Assay results: ChEMBL document CHEMBL6087476, “Positive Charge-Concentrated Dimeric Lipopeptides with Enhanced Protease Resistance: A Potential Solution for Systemic Bacterial Infections” (J Med Chem, 2025)
In brackets after ≈: the same amount, converted by molar mass. Activity calls are given as the source filed them. The calls are words filed in the database; no cut-off is given here.

Legend:
Staphylococcus aureus [1] = assay: Antimicrobial activity against methicillin-resistant Staphylococcus aureus 43300 assessed as increase in absorbance incubated for 20 to 22 hrs; type: functional; conditions: time 20-22 hrs
RAW264.7 = assay: Cytotoxicity against mouse RAW264.7 cells assessed as cell death measured after 18 to 24 hrs by MTT assay; type: functional; conditions: time 18-24 hrs
Escherichia coli [2] = assay: Antimicrobial activity against Escherichia coli K88 assessed as increase in absorbance incubated for 20 to 22 hrs; type: functional; conditions: time 20-22 hrs
Escherichia coli [3] = assay: Antimicrobial activity against Escherichia coli ATCC 25922 assessed as increase in absorbance at MIC concentration in presence of < 8 ug/ml Lipopolysaccharide incubated for 8 hrs; type: functional, organism-based; conditions: dose < 8.0 µg/ml
Staphylococcus aureus [4] = assay: Antimicrobial activity against Staphylococcus aureus 25923 assessed as increase in absorbance incubated for 20 to 22 hrs; type: functional; conditions: time 20-22 hrs
[5] = Toxicity in ICR mouse assessed as alanine aminotransferase (ALT) level in serum at 5 to 20 mg/kg, ip measured after 3 days; type: organism-based; conditions: in vivo, 72 h, dose 5-20 mg/kg, time 3 day

SMILES: CCCCCCCCCC(=O)NCCCC[C@H](N)C(=O)NCC(=O)NCC(=O)NCC(=O)N[C@H](CCCNC(=N)N)C(=O)N[C@@H](CCCNC(=N)N)C(=O)N[C@@H](CCCNC(=N)N)C(=O)N1CCC[C@H]1C(=O)N[C@@H](CSSC[C@H](NC(=O)[C@@H]1CCCN1C(=O)[C@H](CCCNC(=N)N)NC(=O)[C@H](CCCNC(=N)N)NC(=O)[C@@H](CCCNC(=N)N)NC(=O)CNC(=O)CNC(=O)CNC(=O)[C@@H](N)CCCCNC(=O)CCCCCCCCC)C(=O)O)C(=O)O
- MIC (Staphylococcus aureus [1]): 4 µM (≈ 9.12 µg/mL)
- IC10 (RAW264.7): 256 µM
- MIC (Escherichia coli [2]): 2 µM (≈ 4.56 µg/mL)
- Activity (Escherichia coli [3]): Active
- MIC (Staphylococcus aureus [4]): 4 µM (≈ 9.12 µg/mL)
- Activity [5]: Non-toxic
